Results on two molecules are retold here after patent US10508113B2, “Inhibitors of tyrosine kinase 2 mediated signaling” (AbbVie Inc., priority 2018, dated 2019).

The structures appear in SMILES notation.

For the assay, the target named is T1, Jak2 (Homo sapiens, UniProt O60674).
T1 construct: Cell Type: UT7 cells engineered to express the erythropoietin (EPO) receptor; endogenous in cells; host or cells: UT7 cells engineered to express the EPO receptor
Kind of assay: Jak2 (PSTATS UT7) alpha screen assay: inhibition of EPO induced phosphorylation of STAT5 in UT7 cells. The assay is classed as cell-based. The conditions noted are these: for EC50: EPO induced pSTAT5, UT7 cells; for Tyk2 selectivity over Jak2: calculated from tabulated EC50 data (Jak2 / Tyk2). The method, boiled down:
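EPO-receptor-expressing UT7 cells, starved overnight of EPO, preincubated 30 min at 37 °C with compound (8-point 1:3, top 25 µM final), then stimulated with 1 nM EPO for 20 min. After lysis, pSTAT5 (Tyr694/699) measured by SureFire AlphaScreen; EC50 from dose-response of percent activity.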

T1 sequence (O60674 whole entry): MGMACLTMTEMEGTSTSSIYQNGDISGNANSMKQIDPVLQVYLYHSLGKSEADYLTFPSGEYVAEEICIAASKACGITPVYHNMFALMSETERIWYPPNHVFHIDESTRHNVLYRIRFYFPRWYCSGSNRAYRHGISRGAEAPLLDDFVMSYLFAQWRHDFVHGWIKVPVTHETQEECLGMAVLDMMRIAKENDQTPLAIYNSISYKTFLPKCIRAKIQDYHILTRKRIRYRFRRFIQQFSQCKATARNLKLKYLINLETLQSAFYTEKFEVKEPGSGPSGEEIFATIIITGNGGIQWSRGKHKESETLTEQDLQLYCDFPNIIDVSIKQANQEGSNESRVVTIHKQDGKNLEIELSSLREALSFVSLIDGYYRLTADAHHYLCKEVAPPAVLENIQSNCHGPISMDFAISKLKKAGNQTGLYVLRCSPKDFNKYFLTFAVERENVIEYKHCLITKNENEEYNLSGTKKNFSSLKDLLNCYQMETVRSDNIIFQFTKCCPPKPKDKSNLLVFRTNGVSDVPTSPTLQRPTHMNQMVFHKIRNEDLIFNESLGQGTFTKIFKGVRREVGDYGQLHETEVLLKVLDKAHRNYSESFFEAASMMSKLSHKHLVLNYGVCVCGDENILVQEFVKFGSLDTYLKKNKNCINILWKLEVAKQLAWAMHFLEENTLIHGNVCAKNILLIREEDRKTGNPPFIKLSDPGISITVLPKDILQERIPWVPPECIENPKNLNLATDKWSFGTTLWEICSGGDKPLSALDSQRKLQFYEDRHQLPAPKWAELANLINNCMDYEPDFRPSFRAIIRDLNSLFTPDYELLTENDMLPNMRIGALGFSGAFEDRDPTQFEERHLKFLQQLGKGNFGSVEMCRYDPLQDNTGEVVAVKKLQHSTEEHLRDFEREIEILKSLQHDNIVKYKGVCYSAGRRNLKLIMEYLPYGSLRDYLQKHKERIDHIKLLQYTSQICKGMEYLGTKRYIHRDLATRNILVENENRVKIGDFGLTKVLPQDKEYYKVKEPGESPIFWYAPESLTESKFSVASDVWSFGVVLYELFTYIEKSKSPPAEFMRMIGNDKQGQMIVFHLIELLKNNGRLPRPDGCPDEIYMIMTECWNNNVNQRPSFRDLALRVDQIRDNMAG

The EC50 is the midpoint of the concentration-response curve. A low value points to greater potency. For the molecule `COCc1cc(-c2cn(C)c3cnc(NC(C)=O)cc23)nc([C@]2([C@H](C)O)CCOC2)c1` [Example 22.3, N-(3-(6-((R)-3-((S)-1-hydroxyethyl)tetrahydrofuran-3-yl)-4-(methoxymethyl)pyridin-2-yl)-1-methyl-1H-pyrrolo[2,3-c]pyridin-5-yl)acetamide], the EC50 was above 25 µM and the “Tyk2 selectivity over Jak2” value is on record as >170-fold.

Regarding `COCc1cc(-c2cn(C)c3cnc(NC(C)=O)cc23)nc([C@]2([C@@H](C)O)CCOC2)c1` [Example 22.4, N-(3-(6-((R)-3-((R)-1-hydroxyethyl)tetrahydrofuran-3-yl)-4-(methoxymethyl)pyridin-2-yl)-1-methyl-1H-pyrrolo[2,3-c]pyridin-5-yl)acetamide], the EC50 is above 25 µM and the “Tyk2 selectivity over Jak2” value is >223-fold.
